Assay results taken from article PMC10215804, “Exploring Alternative Pathways to Target Bacterial Type II Topoisomerases Using NBTI Antibacterials: Beyond Halogen-Bonding Interactions” (Antibiotics, 2023).
Read-outs that look alike come from different tables or passages of the source.

Columns and labels:
[1] = target: T1, S. aureus DNA gyrase (Staphylococcus aureus, UniProt P20831); assay: biochemical; conditions: supercoiling inhibition; mean of two independent measurements ± SD
T1 construct: purchased Inspiralis (Norwich, UK)
Description: (§1) To determine the IC50 values of the compounds for S. aureus and E. coli, a DNA gyrase supercoiling high-throughput plate assay and a topoIV relaxation high-throughput plate assay were performed. Assay kits and black streptavidin-coated 96-well microtiter plates are available from Inspiralis (Norwich, UK). For pre-screening, an inhibitor concentration of 100 μM was used. […] A nonlinear regression-based fit of the inhibition curves was used, with the log [inhibitor] versus slope of the reaction variables (four parameters) and a symmetric equation. […] To determine IC50 values, two independent repetitions were performed and the average was calculated.

[2] = target: T2, S. aureus topoIV (Staphylococcus aureus, UniProt P0C1U9); assay: biochemical; conditions: relaxation inhibition; mean of two independent measurements ± SD
T2 construct: purchased Inspiralis (Norwich, UK)
Description: as §1

[3] = target: T3, E. coli DNA gyrase (Escherichia coli, UniProt P0AES4); assay: DNA gyrase supercoiling inhibition assay (high-throughput plate assay); assay type: biochemical
T3 construct: purchased Inspiralis (Norwich, UK)
Description: as §1

[4] = target: T4, E. coli topoIV (Escherichia coli, UniProt P0AFI2); assay: topoIV relaxation inhibition assay (high-throughput plate assay); assay type: biochemical
T4 construct: purchased Inspiralis (Norwich, UK)
Description: as §1

[5] = target: T5, human topoisomerase IIα (Homo sapiens, UniProt P11388); assay: human topoisomerase II alpha relaxation high-throughput assay (selectivity); assay type: biochemical; conditions: residual activity at 100 µM compound; mean ± SD, two independent experiments; read-out: Human TopoIIα (% RA at 100 µM)
T5 construct: purchased Inspiralis (Norwich, UK)
Description: For selectivity determination, a human topoisomerase II alpha relaxation high-throughput assay was used. The assay kits and black streptavidin-coated 96-well microtiter plates are available from Inspiralis (Norwich, UK). Two independent measurements were performed with an inhibitory concentration of 100 µM. Raw data were calculated as the mean ± SD percentage of the residual enzyme activity.

[6] = tested on: A. baumannii; assay: MIC, broth microdilution; assay type: cell-based
Description: (§2) For the determination of minimum inhibitory concentrations (MIC), the broth microdilution method was used in 96-well plate format, according to the guidelines of the Clinical and Laboratory Standards Institute and the recommendations of the European Committee on Antimicrobial Susceptibility Testing (EUCAST). The dilutions of the bacterial suspension of the specific bacterial strain, corresponding to the 0.5 McFarland turbidity standard, were prepared with […] Mueller–Hinton broth with TES (Thermo Fisher Scientific) to obtain an end inoculum of 10^5 CFU/mL. The compounds were dissolved in DMSO and mixed with the inoculum. […] The MIC was determined as the lowest concentration of antibiotic that prevented visible bacterial growth. Tetracycline was used as a positive control on each test plate.

[7] = tested on: E. coli (ATCC 25922); assay: MIC, broth microdilution; assay type: cell-based
Description: as §2

[8] = tested on: E. coli D22; assay: MIC, broth microdilution; assay type: cell-based; conditions: Escherichia coli
Description: as §2

[9] = tested on: E. coli ESBL QA-11.3; assay: MIC, broth microdilution; assay type: cell-based
Description: as §2

[10] = tested on: E. coli N43 (CGSC# 5583); assay: MIC, broth microdilution; assay type: cell-based; conditions: Escherichia coli
Description: as §2

[11] = tested on: E. faecalis RDK 057; assay: MIC, broth microdilution; assay type: cell-based
Description: as §2

[12] = tested on: K. pneumoniae; assay: MIC, broth microdilution; assay type: cell-based
Description: as §2

[13] = tested on: P. aeruginosa RDK 184; assay: MIC, broth microdilution; assay type: cell-based
Description: as §2

[14] = tested on: S. aureus (ATCC 29213); assay: MIC, broth microdilution; assay type: cell-based
Description: as §2

[15] = Metabolic activity assessment (cytotoxicity), CellTiter 96 Aqueous One; assay type: cell-based; conditions: human, 72 h treatment, means of three independent measurements ± SD
Description: HUVEC (ATCC® CRL-1730™) and HepG2 (ATCC® HB-8065™) cell lines were cultured in Dulbecco’s Modified Eagle Medium (DMEM; Sigma-Aldrich, St. Louis, MO, USA) supplemented with 10% heat-deactivated FBS (Gibco, Grand Island, NE, USA), 2 mM L-glutamine, 100 U/mL penicillin, 100 μg/mL streptomycin (all from Sigma-Aldrich, St. Louis, MO, USA) in a humidified chamber at 37 °C and 5% CO2. The experiments were carried out on passages 4–7 for both cell lines. The tested compounds were dissolved in DMSO and further diluted in culture medium to a desired final concentration. The cells were then seeded into 96-well plates at 5 × 10^4 cells/mL (100 μL/well) or 8 × 10^4 cells/mL (100 μL/well) for HUVEC and HepG2, respectively. The cells were then incubated for 24 h to allow attachment onto the wells. The cells were treated with 1 μM and 50 μM of each compound of interest, or the corresponding vehicle as control. […] Their metabolic activity was assessed after 72 h treatment using a CellTiter 96 Aqueous One Solution Cell Proliferation Assay (Promega, Madison, WI, USA), in accordance with the manufacturer’s instructions. The absorbance was measured at 492 nm on an automated microplate reader, Tecan Spark (Tecan Group Ltd., Männedorf, CH, Switzerland). Data are presented as the percentage of metabolic activity of control cells stimulated with vehicle, or as an IC50 value (mean ± SD) from three independent experiments, each conducted in triplicate (for screening) or duplicate (for IC50 determination). IC50 values were calculated using a non-linear regression model and with Graph Pad Prism 9 software.

[16] = tested on: VRE; assay: MIC, broth microdilution; assay type: cell-based; conditions: Enterococcus
Description: as §2

[17] = tested on: MRSA (QA-11.2); assay: MIC, broth microdilution; assay type: cell-based, S. aureus; conditions: Staphylococcus aureus
Description: as §2

[18] = tested on: MRSA (QA-11.7); assay: MIC, broth microdilution; assay type: cell-based, S. aureus; conditions: Staphylococcus aureus
Description: as §2

[19] = tested on: MRSA(QA-12.1); assay: MIC, broth microdilution; assay type: cell-based, S. aureus; conditions: Staphylococcus aureus
Description: as §2

[20] = read-out: MIC E. coli N43 (CGSC# 5583)
[21] = Acinetobacter baumannii; read-out: MIC A. baumannii
[22] = Escherichia coli, ATCC25922; read-out: MIC E. coli (ATCC 25922)
[23] = Enterococcus faecalis, RDK057; Table S3; read-out: MIC (μM) E. faecalis DRK 057
[24] = Enterococcus faecalis, RDK057; read-out: MIC E. faecalis RDK 057
[25] = Klebsiella pneumoniae; read-out: MIC K. pneumoniae
[26] = Pseudomonas aeruginosa, RDK184; read-out: MIC P. aeruginosa RDK 184

T2 sequence (P0C1U9 whole entry): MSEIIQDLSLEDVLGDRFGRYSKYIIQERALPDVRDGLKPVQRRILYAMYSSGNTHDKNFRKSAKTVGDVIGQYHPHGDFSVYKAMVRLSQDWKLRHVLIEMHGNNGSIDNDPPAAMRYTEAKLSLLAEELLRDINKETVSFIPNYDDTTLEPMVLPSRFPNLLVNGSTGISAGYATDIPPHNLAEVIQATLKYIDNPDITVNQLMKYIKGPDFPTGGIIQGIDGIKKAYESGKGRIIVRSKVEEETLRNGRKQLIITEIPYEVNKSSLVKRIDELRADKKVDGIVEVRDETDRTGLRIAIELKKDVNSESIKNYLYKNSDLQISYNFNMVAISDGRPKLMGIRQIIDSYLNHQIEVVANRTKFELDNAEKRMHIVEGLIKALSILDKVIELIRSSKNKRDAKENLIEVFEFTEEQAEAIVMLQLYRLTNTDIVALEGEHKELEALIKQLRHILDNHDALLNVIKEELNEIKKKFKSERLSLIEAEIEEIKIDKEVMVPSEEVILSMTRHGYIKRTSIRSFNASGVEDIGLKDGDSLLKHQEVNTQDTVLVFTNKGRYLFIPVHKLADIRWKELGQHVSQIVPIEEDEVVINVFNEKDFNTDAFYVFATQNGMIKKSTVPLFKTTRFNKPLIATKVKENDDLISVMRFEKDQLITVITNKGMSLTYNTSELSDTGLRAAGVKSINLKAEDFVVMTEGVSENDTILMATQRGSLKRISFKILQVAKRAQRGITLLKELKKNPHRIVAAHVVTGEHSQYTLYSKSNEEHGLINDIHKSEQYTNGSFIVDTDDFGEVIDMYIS
T2 sequence (P0C1S7 whole entry partner): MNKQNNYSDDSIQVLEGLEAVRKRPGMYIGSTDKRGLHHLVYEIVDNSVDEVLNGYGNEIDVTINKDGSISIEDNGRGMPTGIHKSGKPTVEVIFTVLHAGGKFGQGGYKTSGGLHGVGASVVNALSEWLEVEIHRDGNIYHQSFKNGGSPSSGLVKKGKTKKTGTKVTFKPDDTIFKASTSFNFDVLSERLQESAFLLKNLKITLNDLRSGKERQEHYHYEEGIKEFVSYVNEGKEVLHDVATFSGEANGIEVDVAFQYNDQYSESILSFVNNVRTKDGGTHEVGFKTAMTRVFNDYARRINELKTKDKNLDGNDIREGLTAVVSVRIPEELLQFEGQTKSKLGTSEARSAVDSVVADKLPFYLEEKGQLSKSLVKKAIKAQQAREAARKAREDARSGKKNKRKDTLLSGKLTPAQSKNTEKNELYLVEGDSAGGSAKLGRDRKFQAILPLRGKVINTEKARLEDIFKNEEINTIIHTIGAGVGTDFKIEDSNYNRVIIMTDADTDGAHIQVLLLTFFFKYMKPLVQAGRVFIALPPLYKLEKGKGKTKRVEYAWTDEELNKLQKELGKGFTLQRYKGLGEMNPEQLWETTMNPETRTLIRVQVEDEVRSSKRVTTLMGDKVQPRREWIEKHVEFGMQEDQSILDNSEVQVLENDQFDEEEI
T5 sequence (P11388 whole entry): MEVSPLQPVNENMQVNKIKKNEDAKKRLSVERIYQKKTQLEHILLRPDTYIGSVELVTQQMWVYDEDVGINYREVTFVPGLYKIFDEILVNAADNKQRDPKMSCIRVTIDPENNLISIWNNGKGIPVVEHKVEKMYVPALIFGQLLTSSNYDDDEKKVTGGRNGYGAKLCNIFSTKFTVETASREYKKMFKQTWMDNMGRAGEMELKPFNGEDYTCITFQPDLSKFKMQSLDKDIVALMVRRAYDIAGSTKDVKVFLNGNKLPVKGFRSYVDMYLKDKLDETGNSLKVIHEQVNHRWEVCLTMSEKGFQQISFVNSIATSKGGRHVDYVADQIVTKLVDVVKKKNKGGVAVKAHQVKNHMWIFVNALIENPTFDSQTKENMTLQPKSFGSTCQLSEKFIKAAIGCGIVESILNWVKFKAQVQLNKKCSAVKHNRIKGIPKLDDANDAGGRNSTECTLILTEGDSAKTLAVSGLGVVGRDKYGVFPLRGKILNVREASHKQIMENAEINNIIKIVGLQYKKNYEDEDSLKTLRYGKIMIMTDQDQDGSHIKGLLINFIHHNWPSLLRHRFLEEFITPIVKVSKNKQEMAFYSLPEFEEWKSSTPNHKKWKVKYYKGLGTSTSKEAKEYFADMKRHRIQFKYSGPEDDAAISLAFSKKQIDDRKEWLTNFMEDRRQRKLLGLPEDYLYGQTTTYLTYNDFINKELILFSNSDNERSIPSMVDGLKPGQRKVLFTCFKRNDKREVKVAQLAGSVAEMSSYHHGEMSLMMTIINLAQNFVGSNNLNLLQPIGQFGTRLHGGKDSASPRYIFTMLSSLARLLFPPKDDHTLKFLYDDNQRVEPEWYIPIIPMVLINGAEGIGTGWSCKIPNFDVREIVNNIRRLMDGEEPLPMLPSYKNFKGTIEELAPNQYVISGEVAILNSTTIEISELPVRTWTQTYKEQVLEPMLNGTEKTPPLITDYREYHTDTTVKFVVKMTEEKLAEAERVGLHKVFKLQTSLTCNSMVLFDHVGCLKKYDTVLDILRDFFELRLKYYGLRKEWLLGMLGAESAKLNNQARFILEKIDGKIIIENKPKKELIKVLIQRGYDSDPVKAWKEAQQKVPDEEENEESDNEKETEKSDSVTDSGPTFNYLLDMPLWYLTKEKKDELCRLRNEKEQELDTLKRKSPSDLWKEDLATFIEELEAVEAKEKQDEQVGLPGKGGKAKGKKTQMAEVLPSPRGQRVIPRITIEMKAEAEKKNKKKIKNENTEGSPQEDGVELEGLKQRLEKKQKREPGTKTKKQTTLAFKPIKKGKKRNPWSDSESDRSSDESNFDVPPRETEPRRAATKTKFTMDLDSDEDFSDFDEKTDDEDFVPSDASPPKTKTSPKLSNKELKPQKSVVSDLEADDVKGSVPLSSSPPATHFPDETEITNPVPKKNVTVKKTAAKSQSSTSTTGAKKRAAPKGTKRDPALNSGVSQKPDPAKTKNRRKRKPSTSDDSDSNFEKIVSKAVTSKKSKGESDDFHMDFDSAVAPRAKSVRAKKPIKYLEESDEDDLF
T1 sequence (P20831 whole entry): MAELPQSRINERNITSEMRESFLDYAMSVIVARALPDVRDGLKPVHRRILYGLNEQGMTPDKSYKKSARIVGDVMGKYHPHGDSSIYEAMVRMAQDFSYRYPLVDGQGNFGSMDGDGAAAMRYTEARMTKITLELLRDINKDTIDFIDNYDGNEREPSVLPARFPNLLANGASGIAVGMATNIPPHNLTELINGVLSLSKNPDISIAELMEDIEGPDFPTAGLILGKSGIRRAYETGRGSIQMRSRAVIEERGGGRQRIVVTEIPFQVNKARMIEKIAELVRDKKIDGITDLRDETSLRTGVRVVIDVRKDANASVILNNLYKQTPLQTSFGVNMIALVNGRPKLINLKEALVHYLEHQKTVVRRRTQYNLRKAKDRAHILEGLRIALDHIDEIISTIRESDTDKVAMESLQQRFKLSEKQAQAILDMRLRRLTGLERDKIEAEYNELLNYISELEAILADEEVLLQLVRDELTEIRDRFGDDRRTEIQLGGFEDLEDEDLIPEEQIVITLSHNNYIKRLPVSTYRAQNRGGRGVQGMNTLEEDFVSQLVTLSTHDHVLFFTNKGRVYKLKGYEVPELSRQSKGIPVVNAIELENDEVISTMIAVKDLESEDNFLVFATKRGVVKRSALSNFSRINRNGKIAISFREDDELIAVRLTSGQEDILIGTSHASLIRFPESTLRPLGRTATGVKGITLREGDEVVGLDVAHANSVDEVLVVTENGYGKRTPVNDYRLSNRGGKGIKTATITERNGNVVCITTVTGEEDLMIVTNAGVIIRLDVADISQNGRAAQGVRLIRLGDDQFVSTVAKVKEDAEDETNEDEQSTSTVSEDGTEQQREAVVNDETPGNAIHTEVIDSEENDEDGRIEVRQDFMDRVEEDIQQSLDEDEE
T1 sequence (P0A0K8 whole entry partner): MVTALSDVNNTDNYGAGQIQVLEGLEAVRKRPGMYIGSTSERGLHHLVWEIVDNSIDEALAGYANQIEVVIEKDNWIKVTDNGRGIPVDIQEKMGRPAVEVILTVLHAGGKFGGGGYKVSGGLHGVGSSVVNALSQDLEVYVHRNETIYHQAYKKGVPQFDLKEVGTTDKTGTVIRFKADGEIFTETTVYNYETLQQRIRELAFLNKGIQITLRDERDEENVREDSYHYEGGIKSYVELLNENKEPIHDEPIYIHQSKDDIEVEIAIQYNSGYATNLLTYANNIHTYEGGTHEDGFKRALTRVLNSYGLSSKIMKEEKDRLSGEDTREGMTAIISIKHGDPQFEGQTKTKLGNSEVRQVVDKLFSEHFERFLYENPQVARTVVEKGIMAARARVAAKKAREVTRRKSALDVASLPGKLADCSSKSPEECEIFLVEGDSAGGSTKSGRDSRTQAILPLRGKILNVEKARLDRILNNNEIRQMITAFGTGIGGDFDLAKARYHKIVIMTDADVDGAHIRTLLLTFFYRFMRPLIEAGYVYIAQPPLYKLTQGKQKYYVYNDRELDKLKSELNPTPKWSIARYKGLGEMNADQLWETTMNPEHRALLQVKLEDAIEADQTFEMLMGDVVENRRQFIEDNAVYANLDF

SMILES: COc1ccc2nccc(OCC3CCC(NCc4ccc(N)cc4)CO3)c2n1 (stereo not drawn) [Compound 11, N-(4-Aminobenzyl)-6-(((6-methoxy-1,5-naphthyridin-4-yl)oxy)methyl)tetrahydro-2H-pyran-3-amine]
- IC50 [1]: > 100 µM
- IC50 [2]: > 100 µM
- IC50 [3]: > 100 µM
- IC50 [4]: > 100 µM
- remaining activity at 100 µM [5]: 100%
- MIC ([6]; Acinetobacter baumannii, 20 h, read-out: MIC (μM) A. baumannii): > 328 µM
- MIC ([6]; Acinetobacter baumannii, read-out: MIC A. baumannii): > 128 mg/L
- MIC ([7]; Escherichia coli, ATCC25922, 20 h, read-out: MIC (μM) E. coli (ATCC 25922)): > 328 µM
- MIC ([7]; Escherichia coli, ATCC25922, read-out: MIC E. coli (ATCC 25922)): > 128 mg/L
- MIC ([8]; D22, 20 h, read-out: MIC (μM) E. coli D22): > 328 µM
- MIC ([8]; D22, read-out: MIC E. coli D22): > 128 mg/L
- MIC ([9]; Escherichia coli, ESBLQA11.3, 20 h, read-out: MIC (μM) E. coli ESBL QA:11.3): > 328 µM
- MIC ([9]; Escherichia coli, ESBLQA11.3, read-out: MIC E. coli ESBL QA-11.3): > 128 mg/L
- MIC ([10]; 20 h, read-out: MIC (μM) E. coli N43): > 328 µM
- MIC [10, 20]: > 128 mg/L
- MIC ([11]; Enterococcus faecalis, RDK057, read-out: MIC (μM) E. faecalis DRK 057): > 328 µM
- MIC ([11]; Enterococcus faecalis, RDK057, read-out: MIC E. faecalis RDK 057): > 128 mg/L
- MIC ([12]; Klebsiella pneumoniae, 20 h, read-out: MIC (μM) K. pneumoniae): > 328 µM
- MIC ([12]; Klebsiella pneumoniae, read-out: MIC K. pneumoniae): > 128 mg/L
- MIC ([13]; Pseudomonas aeruginosa, RDK184, 20 h, read-out: MIC (μM) P. aeruginosa RDK 184): > 328 µM
- MIC ([13]; Pseudomonas aeruginosa, RDK184, read-out: MIC P. aeruginosa RDK 184): > 128 mg/L
- MIC ([14]; Staphylococcus aureus, ATCC29213, 20 h, read-out: MIC (μM) S. aureus (ATCC 29213)): > 328 µM
- MIC ([14]; Staphylococcus aureus, ATCC29213, read-out: MIC S. aureus (ATCC 29213)): > 128 mg/L
- IC50 at 72 h ([15]; HUVEC cells (ATCC CRL-1730)): > 50 µM
- IC50 at 72 h ([15]; HepG2 cells (ATCC HB-8065)): > 50 µM

SMILES: COc1ccc2nccc(CCN3CCC(NCc4ccc(N)cc4)CC3)c2n1 [Compound 9, N-(4-Aminobenzyl)-1-(2-(6-methoxy-1,5-naphthyridin-4-yl)ethyl)piperidin-4-amine]
- IC50 [1]: 1.38 ± 0.108 µM
- IC50 [2]: > 100 µM
- IC50 [3]: > 100 µM
- IC50 [4]: 5.698 ± 0.014 µM
- remaining activity at 100 µM [5]: 100 ± 1%
- MIC ([6]; Acinetobacter baumannii, 20 h; Table S3; read-out: MIC (μM) A. baumannii): > 328 µM
- MIC [6, 21]: > 128 mg/L
- MIC ([7]; Escherichia coli, ATCC25922, 20 h; Table S3; read-out: MIC (μM) E. coli (ATCC 25922)): > 328 µM
- MIC [7, 22]: > 128 mg/L
- MIC ([8]; D22, 20 h, Table S3, lpxC mutation, read-out: MIC (μM) E. coli D22): > 328 µM
- MIC ([8]; D22, lpxC mutation that increases membrane permeability, read-out: MIC E. coli D22): > 128 mg/L
- MIC ([9]; Escherichia coli, ESBLQA11.3, 20 h; Table S3; read-out: MIC (μM) E. coli ESBL QA:11.3): > 328 µM
- MIC ([9]; Escherichia coli, ESBLQA11.3; read-out: MIC E. coli ESBL QA-11.3): > 128 mg/L
- MIC ([10]; read-out: MIC (μM) E. coli N43): 164 µM
- MIC [10, 20]: 64 mg/L
- MIC [11, 23]: > 328 µM
- MIC [11, 24]: > 128 mg/L
- MIC ([12]; Klebsiella pneumoniae, 20 h; Table S3; read-out: MIC (μM) K. pneumoniae): > 328 µM
- MIC [12, 25]: > 128 mg/L
- MIC ([13]; Pseudomonas aeruginosa, RDK184, 20 h; Table S3; read-out: MIC (μM) P. aeruginosa RDK 184): > 328 µM
- MIC [13, 26]: > 128 mg/L
- MIC ([14]; Staphylococcus aureus, ATCC29213, read-out: MIC (μM) S. aureus (ATCC 29213)): 164 µM
- MIC ([14]; Staphylococcus aureus, ATCC29213; read-out: MIC S. aureus (ATCC 29213)): 64 mg/L
- IC50 at 72 h ([15]; HUVEC cells (ATCC CRL-1730)): 34 ± 16.9 µM
- IC50 at 72 h ([15]; HepG2 cells (ATCC HB-8065)): 26.1 ± 9.52 µM

SMILES: O=c1ccc2ncc(=O)n3c2n1C[C@H]3CN1CCC(NCc2cc3c(cn2)OCCC3)CC1 [Gepo, gepotidacin, reference compound]
- MIC ([6]; Acinetobacter baumannii; Table S3; read-out: MIC (μM) A. baumannii): 20.5 µM
- MIC [6, 21]: 8 mg/L
- MIC ([7]; Escherichia coli, ATCC25922; Table S3; read-out: MIC (μM) E. coli (ATCC 25922)): 2.56 µM
- MIC [7, 22]: 1 mg/L
- MIC ([8]; D22, Table S3, lpxC mutation, read-out: MIC (μM) E. coli D22): 0.32 µM
- MIC ([10]; read-out: MIC (μM) E. coli N43): 0.041 µM
- MIC [10, 20]: 0.016 mg/L
- MIC [11, 23]: 5.12 µM
- MIC [11, 24]: 2 mg/L
- MIC ([12]; Klebsiella pneumoniae; Table S3; read-out: MIC (μM) K. pneumoniae): 20.5 µM
- MIC [12, 25]: 8 mg/L
- MIC ([13]; Pseudomonas aeruginosa, RDK184; Table S3; read-out: MIC (μM) P. aeruginosa RDK 184): 20.5 µM
- MIC [13, 26]: 8 mg/L
- MIC ([14]; Staphylococcus aureus, ATCC29213; Table S3; read-out: MIC (μM) S. aureus (ATCC 29213)): 0.32 µM
- MIC ([16]; Table S3, read-out: MIC (μM) VRE): 2.56 µM
- MIC ([16]; read-out: MIC VRE): 1 mg/L
- MIC ([17]; Table S3, read-out: MIC (μM) MRSA (QA-11.2)): 1.28 µM
- MIC ([17]; read-out: MIC MRSA (QA-11.2)): 0.5 mg/L
- MIC ([18]; Table S3, read-out: MIC (μM) MRSA (QA-11.7)): 0.161 µM
- MIC ([18]; strain resistant to cefoxitin, ciprofloxacin, clindamycin, erythromycin, tetracycline, thiamulin, trimethoprim, read-out: MIC MRSA (QA-11.7)): 0.063 mg/L
- MIC ([19]; Table S3, read-out: MIC (μM) MRSA(QA-12.1)): 0.32 µM
- MIC ([19]; strain resistant to cefoxitin, gentamicin, kanamycin, rifampicin, streptomycin, sulfamethoxazole, tetracycline, read-out: MIC MRSA(QA-12.1)): 0.125 mg/L
